From paper PMC5522442, “β-Ginkgotides: Hyperdisulfide-constrained peptides from Ginkgo biloba” (Scientific Reports, 2017)
Bridge positions count the residues as written; N and C are the ends. Peptide text beside a SMILES is read from it.

Assays:
[1] = Enzymatic stability against trypsin; assay type: in vitro ADME; conditions: isolated enzyme trypsin; endopeptidase trypsin, up to 6 hr, 37 °C, 100 mM ammonium bicarbonate pH 7.8; 28 µg peptide; quenched with 1 M HCl; UPLC peak area with MALDI-TOF MS; read-out: peptide remaining after trypsin
Experimental: The β-ginkgotide β-gB1 (28 µg) was added to 100 µL of 100 mM ammonium bicarbonate buffer (pH 7.8) and incubated in a water bath at 37 °C for 6 hr. At each time-point (0 and 6 hr), 20 µL of the treated sample was aliquoted and quenched by adding 5 µL of 1 M hydrochloric acid.
The reaction mixture was analyzed by a Nexera UHPLC system (Shimadzu, Kyoto, Japan) equipped with an Aeris peptide XB-C18 column (Phenomenex, CA, USA; particle size 3.6 µm, 100 × 4.6 mm). The eluents were monitored with MALDI-TOF MS, and the area under the peak before and after the treatment was determined to evaluate stability.
Figure S5. Stability assays of β-gB1. (A) Thermal stability of β-gB1 incubated at 100 °C for 120 minutes. (B) Acidic condition stability of […] incubated in 0.2 M HCl (pH 2.0) at 37 °C for 120 minutes. […] The molecular weight of the peak was determined by MALDI-TOF MS.

[2] = Enzymatic stability against carboxypeptidase A; assay type: in vitro ADME; conditions: isolated enzyme carboxypeptidase; exopeptidase carboxypeptidase A (method prints 100 nM carboxypeptidase B), up to 6 hr, 37 °C, 50 mM Tris-HCl pH 7.5, 100 mM NaCl; 28 µg peptide; UPLC peak area with MALDI-TOF MS; read-out: peptide remaining after carboxypeptidase A
[3] = test system: erythrocytes obtained from human type O blood; test: Hemolytic effect on erythrocytes; assay type: cell-based; conditions: human type O erythrocytes in PBS; concentrations up to 100 µM; 4 hr, 37 °C; read at 415 nm
Experimental: Erythrocytes were isolated from fresh blood type O+ by centrifugation for 15 min at 10000 rpm. The erythrocytes were diluted with phosphate-buffered saline, mixed with various concentrations of β-ginkgotide β-gB1 (1–100 µM) and incubated for 4 hr at 37 °C. The hemolytic effect was examined using a microplate reader set at 415 nm^3.

[4] = test system: Vero cell line; test: In vitro cytotoxicity (MTT), Vero cells; assay type: cell-based; conditions: concentrations up to 100 µM, 24 hr
[5] = test system: BHK cell line; test: In vitro cytotoxicity (MTT), BHK cells; assay type: cell-based; conditions: concentrations up to 100 µM, 24 hr

## CC[C@H](C)[C@@H]1NC(=O)[C@@H]2CSSC[C@H](NC(=O)CNC(=O)[C@@H](NC(=O)[C@H](CCC(=O)O)NC(=O)[C@@H](N)Cc3ccc(O)cc3)[C@@H](C)O)C(=O)N[C@@H](CCCCN)C(=O)N[C@@H](CCCNC(=N)N)C(=O)N[C@H]3CSSC[C@@H](C(=O)O)NC(=O)[C@H](CSSC[C@H](NC3=O)C(=O)N[C@@H](Cc3ccc(O)cc3)C(=O)N[C@@H](CC(C)C)C(=O)N[C@@H](CC(=O)O)C(=O)N[C@@H](CCC(=O)O)C(=O)N[C@@H](Cc3ccc(O)cc3)C(=O)NCC(=O)N2)NC(=O)[C@H](CCCNC(=N)N)NC1=O [β-gB1] (H-YETGCKRCCYLDEYGCIRCC-OH; disulfide 5-16, 8-20, 9-19)
[1]
  remaining at 6 h: > 90%
[2]
  remaining at 6 h: > 90%
[3]
  hemolytic effect: no hemolytic effect
[4]
  cytotoxic effect, Vero cells: nontoxic
[5]
  cytotoxic effect, BHK cells: nontoxic
